Experimental data reported in patent US5374623A, “Cysteine protease inhibitors effective for in vivo use” (Prototek, Inc., priority 1992, dated 1994).
Each block holds one compound with its values, some of them ahead of it.

How the values were obtained:
[1] = target: T1, Cathepsin B purified from human liver (Homo sapiens, UniProt P07858); test: Cathepsin B inhibition, potency relative to Z-Phe-Ala-CH2 F; type: biochemical; details: substrate Z-Leu-Arg-Arg-AFC, pH 6.2, inhibitor added 2 min before substrate
T1 construct: Cathepsin B. purified from human liver; purchased Enzyme Systems Products (Dublin, Calif.); host or cells: human liver (tissue-purified)
Method: Cathepsin B. purified from human liver, was obtained from Enzyme Systems Products (Dublin, Calif.). The activity of the enzyme used in this Example was 50 mU per ml at 30° C. in 50 mm sodium phosphate buffer, pH 6.2, 5 mm DTT, 2 mm EDTA, with Z-Leu-Arg-Arg-7-amino-4-trifluoromethyl courmarin (Z-Leu-Arg-Arg-AFC) as substrate.
Cathepsin B assays were done under the following conditions: Five μl of enzyme stock solution was preincubated with 435 μl of phosphate buffer for 30 minutes to activate the enzyme. Nine μl of 20 mm stock substrate solution (in dimethylformamide) were added and mixed with the activated enzyme. Activity was followed by the release of free AFC as monitored by a Perkin-Elmer LS-5B spectrofluorometer (excitation=400 nm, emission=505 nm).
The inhibitors described herein were prepared in 20 mm stock solutions in DMF. Five μl aliquots of each inhibitor were added to the enzyme 2 min before the substrate was added to the mix. Potency was determined relative to the activity of a standard cathepsin B inhibitor, Z-Phe-Ala-CH2 F (relative potency of 1.0).

bone resorption = test: In vivo bone resorption by urinary 14C-tetracycline excretion in rats
Method: Treatment of Osteo Arthritis with Mu-Phe-HPhe-O-Ph. The skeletons of young growing rats were radioactively labelled by injections with ^14 C-tetracycline over a 10 day period. The amount of bone resorption was then determined each day as the amount of radioactivity excreted in the urine. After 10 days of control excretion, test compounds were administered for three days subcutaneously and their effects on the daily excretion of tetracycline were determined. Tested compounds were dissolved in DMSO/PEG at a concentration of 25 mg/ml and were injected once per day subcutaneously in a volume of 2 ml/kg. Treatment of Osteo Arthritis with Mu-Leu-HPhe-O-Ph. The skeletons of young growing rats were radioactively labelled by injections with ^14 C-tetracycline over a 10 day period. The amount of bone resorption was then determined each day as the amount of radioactivity excreted in the urine. After 10 days of control excretion, test compounds were administered for three days subcutaneously and their effects on the daily excretion of tetracycline were determined. Tested compounds were dissolved in DMSO/PEG at a concentration of 25 mg/ml and were injected once per day subcutaneously in a volume of 2 ml/kg.

[2] = tested on: 45Ca2+-labelled bones (calvaria) of neonatal mice; test: Parathyroid hormone-stimulated 45Ca2+ release from cultured mouse calvaria; type: cell-based; details: for inhibition of the rate of 45Ca2+-release: 1 μm inhibitor; for inhibition of the rate of 45Ca2+-release / additional inhibition of the rate of 45Ca2+-release: 24 hour period, PTH-stimulated; for additional inhibition of the rate of 45Ca2+-release: 100 μm inhibitor
Method: (§1) Treatment of Osteo Arthritis with Mu-Phe-HPhe-O-Ph. ^45 Ca^2+ -labelled bones (calvaria) of neonatal mice were maintained in culture. The effect of the test compound on the rate of parathyroid hormone-stimulated ^45 Ca^2+ release was measured over a 24 hour period. An inhibitor of bone resorption (at maximal concentrations) would be expected to inhibit this rate by approximately 70%. The nature of the residual, uninhibitable ^45 Ca^2+ -release is not known but could represent chemical exchange of ^45 Ca^2+ with the medium. Mu-Phe-HPhe-O-Ph was dissolved in dimethylsulphoxide which was present in the incubation at concentrations <0.1%.
as §1, with “Mu-Leu-HPhe-O-Ph.” for “Mu-Phe-HPhe-O-Ph.”, “Mu-Leu-HPhe-O-Ph” for “Mu-Phe-HPhe-O-Ph”
as §1, with “Mu-Tyr(OMe)-HPhe-O-Ph.” for “Mu-Phe-HPhe-O-Ph.”, “Mu-Tyr(OMe)-HPhe-O-Ph” for “Mu-Phe-HPhe-O-Ph”
as §1, with “Z-Phe-Ala-O-Ph.” for “Mu-Phe-HPhe-O-Ph.”, “Z-Phe-Ala-O-Ph” for “Mu-Phe-HPhe-O-Ph”
as §1, with “Mu-Tyr(OMe)-HPhe-O-Ph.” for “Mu-Phe-HPhe-O-Ph.”, “labelled” for “-labelled”, “Mu-Tyr(OMe)-HPhe-O-Ph” for “Mu-Phe-HPhe-O-Ph”

[3] = target: Soluble extracts of P. falciparum (cysteine proteinase); test: Proteolytic activity of P. falciparum soluble extracts, substrate Z-Phe-Arg-AFC; type: biochemical; details: read-out: IC50, proteolytic activity of P. falciparum extract
Method: Soluble extracts of P. falciparum and P. vinckei were prepared and proteolytic activity was assayed with fluorogenic peptide substrate Z-Phe-Arg-AFC. […] The concentrations at which activity was inhibited by 50% (IC50) was calculated.
Soluble extracts of P. falciparum and P. vinckei were prepared and proteolytic activity was assayed with fluorogenic peptide substrate Z-Phe-Arg-AFC. […] The concentration at which activity was inhibited by 50%. (IC50) was calculated.
Soluble extracts of P. falciparum and P. vinckei were prepared and proteolytic activity was assayed with fluorogenic peptide substrate Z-Phe-Arg-AFC. […] The concentration at which activity was inhibited by 50% (IC50) was calculated.
The concentration at which activity was inhibited by 50% (IC50) was calculated.

[4] = tested on: Soluble extracts of P. vinckei; test: Proteolytic activity of P. vinckei soluble extracts, substrate Z-Phe-Arg-AFC; type: biochemical; details: read-out: IC50, proteolytic activity of P. vinckei extract
Method: (§2) Treatment of Malaria with Mu-Phe-HPhe-O-Ph. Soluble extracts of P. falciparum and P. vinckei were prepared and proteolytic activity was assayed with fluorogenic peptide substrate Z-Phe-Arg-AFC. The activity of control samples was compared with activities in the presence of multiple concentrations of Mu-Phe-HPhe-O-Ph. The concentrations at which activity was inhibited by 50% (IC50) was calculated.
as §2, with “with Mu-Leu-HPhe-O-Ph.” for “with Mu-Phe-HPhe-O-Ph.”, “of Mu-Leu-HPhe-O-Phe.” for “of Mu-Phe-HPhe-O-Ph.”, “The concentration” for “The concentrations”, “by 50%.” for “by 50%”
as §2, with “with Mu-Phe-Arg(NO2)-O-Ph.” for “with Mu-Phe-HPhe-O-Ph.”, “of Mu-Phe-Arg(NO2)-O-Ph.” for “of Mu-Phe-HPhe-O-Ph.”, “The concentration” for “The concentrations”
as §2, with “with Mu-Tyr(OCH3)2 -HPhe-O-Ph.” for “with Mu-Phe-HPhe-O-Ph.”, “samples as” for “samples was”, “of Mu-Tyr(OCH3)2 -HPhe-O-Ph.” for “of Mu-Phe-HPhe-O-Ph.”, “The concentration” for “The concentrations”

[5] = tested on: adjuvant-induced arthritis; test: Adjuvant-induced arthritis in rats, compound in ground diet (Example 15); type: in vivo; details: day 0 to day 32
Method: Treatment of Rheumatoid Arthritis with Mu-Tyr(OMe)-HPhe-O-Ph. Rats were injected with adjuvant on day 0 and were treated with Mu-Tyr(OMe)-HPhe-O-Ph in ground diet from the time of adjuvant injection until sacrifice at day 32. Over the course of the disease, animals were evaluated in terms of a mean clinical score, a derived series of clinically observed parameters normalized to facilitate graphical presentation. Mean paw volumes were also measured using normalized units throughout the course of the disease. At the end of the study, the animal groups were sacrificed and evaluated by X-ray analysis.

Compound: CC(C)C[C@H](NC(=O)N1CCOCC1)C(=O)N[C@@H](CCc1ccccc1)C(=O)COc1ccccc1 [Mu-Leu-HPhe-O-Ph]
inhibition of bone resorption in vivo as measured by tetracycline excretion (bone resorption; subcutaneous once per day for three days, 25 mg/ml in DMSO/PEG, 2 ml/kg): nearly as great as that of a maximal dose of calcitonin
time of maximum effect after dosing commenced (bone resorption; subcutaneous once per day, 25 mg/ml, 2 ml/kg): 24 h
findings at the sites of injection at end of experiment (bone resorption; subcutaneous, DMSO/PEG, three days, histology: inflammation of subcutaneous fat, tissue necrosis): lesions were visible at the sites of injection
inhibition of the rate of 45Ca2+-release [2]: 50%
additional inhibition of the rate of 45Ca2+-release [2]: 20%
IC50 [3]: 0.42 nM
IC50 [4]: 15 nM

Compound: NC(=NCCCC(NC(=O)C(Cc1ccccc1)NC(=O)N1CCOCC1)C(=O)COc1ccccc1)N[N+](=O)[O-] (stereo not shown) [Mu-Phe-Arg(NO2)-O-Ph]
IC50 [3]: 2.4 nM
IC50 [4]: 110 nM

Compound: CC(NC(=O)C(Cc1ccccc1)NC(=O)OCc1ccccc1)C(=O)COc1ccccc1 (stereo not drawn) [Z-Phe-Ala-O-Ph]
inhibition of the rate of 45Ca2+-release [2]: 50%
additional inhibition of the rate of 45Ca2+-release [2]: 20%

Further lines, with some results ahead:

relative potency of cathepsin B inhibition (Z-Phe-Ala-CH2 F = 1.0) [1]: 0.2
Compound: COC(=O)c1ccccc1OCC(=O)C(C)(C)NC(=O)C(Cc1ccccc1)NC(=O)N1CCOCC1 (stereo not shown) [Example 9, Morpholine carbonyl phenylalanyl 2-aminoisobutyric methyl phenoxy ketone]

IC50 ([2]; initial phase of inhibition, read-out: IC50 for inhibition of resorption in mouse calvaria): ~40 nM
Compound: COc1ccc(C[C@H](NC(=O)N2CCOCC2)C(=O)N[C@@H](CCc2ccccc2)C(=O)COc2ccccc2)cc1 [Mu-Tyr(OMe)-HPhe-O-Ph]
mean clinical scores vs untreated animals [5]: significantly lower
mean paw volumes vs untreated animals [5]: significantly reduced
inhibition of the rate of 45Ca2+-release [2]: 50%
additional inhibition of the rate of 45Ca2+-release [2]: 20%

relative potency of cathepsin B inhibition (Z-Phe-Ala-CH2 F = 1.0) [1]: 1.0
Compound: C[C@H](NC(=O)[C@H](Cc1ccccc1)NC(=O)OCc1ccccc1)C(=O)CF [Z-Phe-Ala-CH2 F, reference compound]

relative potency of cathepsin B inhibition (Z-Phe-Ala-CH2 F = 1.0) [1]: five
Compound: t-Butyl carbamyl-L-arginyl-(2-Carboxymethyl) phenoxymethyl ketone [Example 3]
